The target in the test is T1, human OX2R (Homo sapiens, UniProt O43614).
T1 construct: expressed in transfected cells; host or cells: CHO (Chinese hamster ovary) cells grown under G418 selection
T1 sequence (O43614 1-444): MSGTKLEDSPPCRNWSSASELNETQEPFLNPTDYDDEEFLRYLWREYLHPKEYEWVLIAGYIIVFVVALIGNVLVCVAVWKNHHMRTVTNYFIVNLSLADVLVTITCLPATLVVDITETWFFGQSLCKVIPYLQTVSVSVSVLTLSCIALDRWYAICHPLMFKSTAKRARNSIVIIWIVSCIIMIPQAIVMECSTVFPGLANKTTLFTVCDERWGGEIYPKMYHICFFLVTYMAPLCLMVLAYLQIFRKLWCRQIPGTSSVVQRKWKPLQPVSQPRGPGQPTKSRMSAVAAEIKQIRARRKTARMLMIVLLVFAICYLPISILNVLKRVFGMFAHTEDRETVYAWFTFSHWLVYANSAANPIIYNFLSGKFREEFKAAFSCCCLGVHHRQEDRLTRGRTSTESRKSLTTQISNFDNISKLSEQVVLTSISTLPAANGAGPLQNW
As to the kind of experiment: IPOne (IP-1 accumulation) assay in CHO cells expressing human OX2R. It is filed as cell-based. The conditions noted are these: for EC50: CHO cells expressing human OX2R, IP-One assay, 2 h incubation, four parameter logistic fit, read-out: OX2R Potency, EC50; for % of maximum agonist effect (relative to Orexin A): percent effect vs mean max effect of a reference compound at 1 uM (100% activity vs Orexin A), human OX2R. Summed up: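 Agonist EC50 values come from the inflection point of four-parameter logistic curves. Read-out is IP-1 accumulation detected with lysis buffer plus D2 and AB-cryptate reagents (HTRF), in CHO cells engineered to express human OX2R.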

Usually EC50 stands for the concentration at which the effect is half-maximal.

Turning to `CCN(C(=O)NC1CCC(C(F)(F)F)N(C)C1)[C@@H](c1cccc(-c2cn3ccnc3c(OC)n2)c1)C(F)(F)F` (stereo partly drawn) [Example 2-67, 1-ethyl-3-(1-methyl-6-(trifluoromethyl)piperidin-3-yl)-1-((S)-2,2,2-trifluoro-1-(3-(8-methoxyimidazo[1,2-a]pyrazin-6-yl)phenyl)ethyl)urea], the EC50 came out at 7.7 nM and the “% of maximum agonist effect (relative to Orexin A)” value is on record as 98.7%.

For `CCNC(=O)N(CC)[C@H](C)c1cccc(-c2cc(OC)c3nccn3c2)c1` [Example 2-68, (R)-1,3-diethyl-1-(1-(3-(8-methoxyimidazo[1,2-a]pyridin-6-yl)phenyl)ethyl)urea], the concentration for a half-maximal effect (EC50) amounted to 179 nM and the “% of maximum agonist effect (relative to Orexin A)” value amounted to 83.3%.

`CCN(C(=O)N[C@@H](CCCF)C(F)(F)F)[C@@H](c1cc(-c2cn3cc(C)nc3c(OC)n2)c(OC)cn1)C(F)(F)F` [Example 3-2, 1-ethyl-3-((S)-1,1,1,5-tetrafluoropentan-2-yl)-1-((S)-2,2,2-trifluoro-1-(5-methoxy-4-(8-methoxy-2-methylimidazo[1,2-a]pyrazin-6-yl)pyridin-2-yl)ethyl)urea]: the concentration giving a half-maximal response (EC50) worked out at 3.3 nM and the “% of maximum agonist effect (relative to Orexin A)” value is listed as 102.4%.

As to `CCN(C(=O)N[C@@H](CCC(F)F)C(F)(F)F)[C@@H](c1cc(-c2cn3cc(C)nc3c(OC)n2)c(OC)cn1)C(F)(F)F` [Example 3-3, 1-ethyl-3-((S)-1,1,1,5,5-pentafluoropentan-2-yl)-1-((S)-2,2,2-trifluoro-1-(5-methoxy-4-(8-methoxy-2-methylimidazo[1,2-a]pyrazin-6-yl)pyridin-2-yl)ethyl)urea], the 50% effective concentration (EC50) worked out at 3.6 nM and the “% of maximum agonist effect (relative to Orexin A)” value came out at 101.6%.

Turning to `CCN(C(=O)N[C@@H](CCC(F)=C(F)F)C(F)(F)F)[C@@H](c1cc(-c2cn3cc(C)nc3c(OC)n2)c(OC)cn1)C(F)(F)F` [Example 3-4, 1-ethyl-3-((S)-1,1,1,5,6,6-hexafluorohex-5-en-2-yl)-1-((S)-2,2,2-trifluoro-1-(5-methoxy-4-(8-methoxy-2-methylimidazo[1,2-a]pyrazin-6-yl)pyridin-2-yl)ethyl)urea], the EC50 amounted to 27.8 nM and the “% of maximum agonist effect (relative to Orexin A)” value stood at 100.5%.

On to `CCN(C(=O)N[C@@H](CC1CC1)C(F)(F)F)[C@@H](c1cc(-c2cn3cc(C)nc3c(OC)n2)c(OC)cn1)C(F)(F)F` [Example 3-5, 3-((S)-3-cyclopropyl-1,1,1-trifluoropropan-2-yl)-1-ethyl-1-((S)-2,2,2-trifluoro-1-(5-methoxy-4-(8-methoxy-2-methylimidazo[1,2-a]pyrazin-6-yl)pyridin-2-yl)ethyl)urea], for which the EC50 was 40.5 nM and the “% of maximum agonist effect (relative to Orexin A)” value was 99.3%.

In the case of `CCN(C(=O)NC(CCC1CC1)C(F)(F)F)[C@H](C)c1cccc(-c2cn3ccnc3c(OC)n2)c1` (stereo partly drawn) [Example 3-6, 3-(4-cyclopropyl-1,1,1-trifluorobutan-2-yl)-1-ethyl-1-((R)-1-(3-(8-methoxyimidazo[1,2-a]pyrazin-6-yl)phenyl)ethyl)urea], the EC50 is 2.6 nM and the “% of maximum agonist effect (relative to Orexin A)” value is 99.7%.

In the case of `C#CCCCC(NC(=O)N(CC)[C@H](C)c1cccc(-c2cn3ccnc3c(OC)n2)c1)C(F)(F)F` (stereo partly drawn) [Example 3-7, 1-ethyl-1-((R)-1-(3-(8-methoxyimidazo[1,2-a]pyrazin-6-yl)phenyl)ethyl)-3-(1,1,1-trifluorohept-6-yn-2-yl)urea], the 50% effective concentration (EC50) stood at 4.4 nM and the “% of maximum agonist effect (relative to Orexin A)” value is 100.5%.

For `CCN(C(=O)N[C@@H](CCC(F)(F)F)C(F)F)[C@@H](c1cc(-c2cn3cc(C)nc3c(OC)n2)c(OC)cn1)C(F)(F)F` [Example 4-1, 1-ethyl-3-((S)-1,1,5,5,5-pentafluoropentan-2-yl)-1-((S)-2,2,2-trifluoro-1-(5-methoxy-4-(8-methoxy-2-methylimidazo[1,2-a]pyrazin-6-yl)pyridin-2-yl)ethyl)urea], the EC50 stood at 4.8 nM and the “% of maximum agonist effect (relative to Orexin A)” value is on record as 101.6%.

Source of the values: US12692262B2, “Substituted ureas as orexin receptor agonists” (Merck Sharp & Dohme LLC, priority 2020, dated 2026).
